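Here, GI50 denotes the concentration required for 50% inhibition of growth. TGI is the concentration that stops growth completely.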
Assays:
Assay in all cases: inhibition of tumour cell growth, NCI panel, 384-well format
[1] = tested on: HT29 colon
[2] = tested on: SK-MEL-28 melanoma
[3] = tested on: OVCAR-8 ovarian
[4] = tested on: COLO 205 colon
[5] = tested on: MCF7 breast
[6] = tested on: HCT-15 colon
[7] = tested on: M14 melanoma
[8] = tested on: HCC-2998 colon
[9] = tested on: SF-268 CNS
[10] = tested on: NCI-H226 lung
[11] = tested on: HOP-92 NSCLC
[12] = tested on: MDA-MB-468 breast
[13] = tested on: MOLT-4 leukemia
[14] = tested on: RXF 393 renal
[15] = tested on: CAKI-1 renal
[16] = tested on: NCI-H23 lung
[17] = tested on: OVCAR-4 ovarian
[18] = tested on: SR leukemia
[19] = tested on: NCI-H460 NSCLC
[20] = tested on: HOP-62 NSCLC
[21] = tested on: HS 578T breast
[22] = tested on: SF-295 CNS
[23] = tested on: UACC-257 melanoma
[24] = tested on: SF-539 CNS
[25] = tested on: DU-145 prostate
[26] = tested on: SK-OV-3 ovarian
[27] = tested on: ACHN renal
[28] = tested on: NCI-H322M lung
[29] = tested on: T-47D breast
[30] = tested on: A498 renal
[31] = tested on: SN12C renal
[32] = tested on: NCI-H522 lung
[33] = tested on: NCI/ADR-RES ovarian
[34] = tested on: EKVX NSCLC
[35] = tested on: RPMI-8226 leukemia
[36] = tested on: OVCAR-5 ovarian
[37] = tested on: OVCAR-3 ovarian
[38] = tested on: BT-549 breast
[39] = tested on: SNB-19 CNS
[40] = tested on: PC-3 prostate
[41] = tested on: LOX IMVI melanoma
[42] = tested on: U251 glioblastoma
[43] = tested on: KM12 colon
[44] = tested on: IGROV1 ovarian
[45] = tested on: HCT-116 colon
[46] = tested on: SK-MEL-5 melanoma
[47] = tested on: SNB-75 CNS
[48] = tested on: A549 NSCLC
[49] = tested on: TK-10 renal
[50] = tested on: MDA-MB-435 melanoma
[51] = tested on: MALME-3M melanoma
[52] = tested on: MDA-MB-231 breast
[53] = tested on: UACC-62 melanoma

With `COc1ccc(COc2cc3oc(=O)c4cc(C(C)O)ccc4c3cc2OC)cc1` (stereo unspecified) the GI50 [1] was 6.91 µM, the TGI [1] was greater than 100 µM and the GI50 [2] was 55.3 µM. It also gave a TGI [2] greater than 100 µM, a GI50 [3] of 12.6 µM and a TGI [3] of 54.2 µM. It also gave a GI50 [4] greater than 100 µM, a TGI [4] greater than 100 µM and a GI50 [5] of 5.21 µM. It also gave a TGI [5] of 22.2 µM, a GI50 [6] of 3.57 µM and a TGI [6] greater than 100 µM. It also gave a GI50 [7] of 8.95 µM, a TGI [7] greater than 100 µM and a GI50 [8] of 14.6 µM. The TGI [8] was greater than 100 µM, the GI50 [9] was 4.6 µM and the TGI [9] was 16 µM. It also gave a GI50 [10] of 15.2 µM, a TGI [10] of 33.8 µM and a GI50 [11] of 11.3 µM. It also gave a TGI [11] of 30.1 µM, a GI50 [12] of 4.9 µM and a TGI [12] of 25.2 µM. The GI50 [13] was 5.6 µM, the TGI [13] was greater than 100 µM and the GI50 [14] was 5.55 µM. It also gave a TGI [14] of 19.5 µM, a GI50 [15] of 18.6 µM and a TGI [15] of 60.8 µM. The GI50 [16] was 11.9 µM, the TGI [16] was 36.9 µM and the GI50 [17] was 3.41 µM. For the same molecule, the TGI [17] was 12.3 µM, the GI50 [18] was 1.87 µM and the TGI [18] was 5.69 µM. The GI50 [19] was 5.65 µM, the TGI [19] was 85.9 µM and the GI50 [20] was 8.11 µM. The TGI [20] was 24.5 µM, the GI50 [21] was 5.56 µM and the TGI [21] was 19.3 µM. It also gave a GI50 [22] of 10.4 µM, a TGI [22] of 30.6 µM and a GI50 [23] of 24.3 µM. For the same molecule, the TGI [23] was 94.6 µM, the GI50 [24] was 7.79 µM and the TGI [24] was 20.6 µM. The GI50 [25] was 41.6 µM, the TGI [25] was greater than 100 µM and the GI50 [26] was 3.89 µM. It also gave a TGI [26] of 21.2 µM, a GI50 [27] of 23 µM and a TGI [27] of 61.2 µM. The GI50 [28] was 20.4 µM, the TGI [28] was 71.4 µM and the GI50 [29] was 10.6 µM. For the same molecule, the TGI [29] was 61.5 µM, the GI50 [30] was 12.2 µM and the TGI [30] was 35 µM. It also gave a GI50 [31] of 20 µM, a TGI [31] of 90.1 µM and a GI50 [32] of 5.04 µM. For the same molecule, the TGI [32] was 16.4 µM, the GI50 [33] was 4.8 µM and the TGI [33] was 59.4 µM. For the same molecule, the GI50 [34] was 12.2 µM, the TGI [34] was 43.2 µM and the GI50 [35] was 16.3 µM. For the same molecule, the TGI [35] was greater than 100 µM, the GI50 [36] was 61.2 µM and the TGI [36] was greater than 100 µM. The GI50 [37] was 10.1 µM, the TGI [37] was 24.7 µM and the GI50 [38] was 6.81 µM. For the same molecule, the TGI [38] was 20.5 µM, the GI50 [39] was 7.73 µM and the TGI [39] was 20.8 µM. For the same molecule, the GI50 [40] was 24.9 µM, the TGI [40] was 93.1 µM and the GI50 [41] was 17 µM. It also gave a TGI [41] greater than 100 µM, a GI50 [42] of 7.43 µM and a TGI [42] of 24.8 µM. It also gave a GI50 [43] of 8.27 µM, a TGI [43] greater than 100 µM and a GI50 [44] of 15.3 µM. It also gave a TGI [44] of 35.7 µM, a GI50 [45] of 9.41 µM and a TGI [45] greater than 100 µM. It also gave a GI50 [46] of 3.62 µM, a TGI [46] of 12.5 µM and a GI50 [47] of 6.65 µM. It also gave a TGI [47] of 20.3 µM, a GI50 [48] of 18.6 µM and a TGI [48] greater than 100 µM. The GI50 [49] was 10.5 µM, the TGI [49] was 25.6 µM and the GI50 [50] was 2.09 µM. The TGI [50] was 4.71 µM, the GI50 [51] was 15.8 µM and the TGI [51] was greater than 100 µM. It also gave a GI50 [52] of 20.3 µM, a TGI [52] of 77.5 µM and a GI50 [53] of 8.49 µM. For the same molecule, the TGI [53] was 22.8 µM.

Source: PubChem BioAssay (NCI)
